Data published in PubChem BioAssay AID274 (DTP/NCI, 2004).
Where “and” joins values, the source holds several entries; their conditions need not be identical. Equal values may be shown once. Toxic doses and inconclusive results are not listed. The calls were made as follows: active = survival T/C of 150% or more; inactive = T/C below 125% in these data.

System: BDF1 mice, Lewis lung carcinoma iv, survival T/C
Assay: NCI In Vivo Anticancer Drug Screen. Data for tumor model Lewis Lung Carcinoma (intravenous) in B6D2F1 (BDF1) mice
Conditions: endpoint: median survival time, higher = longer survival
Experimental: The antitumor activity of compounds was measured in mice bearing transplantable tumors. Survival or tumor size were measured and the results are expressed as the measurement made in the treated group (T) divided by the measurement made in the vehicle treated control group (C). The tumor model used in this assay is Lewis Lung Carcinoma (intravenous) in B6D2F1 (BDF1) mice

[1] = dose: 12.5 mg/kg/injection, schedule: Q01DX009 (ip), vehicle: saline with Tween-80
[2] = dose: 25.0 mg/kg/injection, schedule: Q01DX009 (ip), vehicle: saline with Tween-80
[3] = dose: 200.0 mg/kg/injection, schedule: Q01DX009 (ip), vehicle: saline with Tween-80
[4] = dose: 0.25 mg/kg/injection, schedule: Q01DX009 (ip), vehicle: saline
[5] = dose: 0.5 mg/kg/injection, schedule: Q01DX009 (ip), vehicle: saline
[6] = dose: 1.0 mg/kg/injection, schedule: Q01DX009 (ip), vehicle: saline
[7] = dose: 2.0 mg/kg/injection, schedule: Q01DX009 (ip), vehicle: saline
[8] = dose: 25.0 mg/kg/injection, schedule: Q01DX009 (ip), vehicle: saline
[9] = dose: 50.0 mg/kg/injection, schedule: Q01DX009 (ip), vehicle: saline
[10] = dose: 100.0 mg/kg/injection, schedule: Q01DX009 (ip), vehicle: saline
[11] = dose: 50.0 mg/kg/injection, schedule: Q01DX009 (ip), vehicle: saline with Tween-80
[12] = dose: 100.0 mg/kg/injection, schedule: Q01DX009 (ip), vehicle: saline with Tween-80
[13] = dose: 400.0 mg/kg/injection, schedule: Q01DX009 (ip), vehicle: saline with Tween-80

Measured: T/C

Nc1nc2c(ncn2C2OC(CO)C(O)C2N)c(=O)[nH]1 (stereo not drawn)
inactive: dose: 3.0 mg/kg/injection, schedule: Q01DX009 (ip), vehicle: saline with Tween-80 101 % of control | dose: 6.0 mg/kg/injection, schedule: Q01DX009 (ip), vehicle: saline with Tween-80 110 % of control | dose: 12.0 mg/kg/injection, schedule: Q01DX009 (ip), vehicle: saline with Tween-80 108 % of control | dose: 24.0 mg/kg/injection, schedule: Q01DX009 (ip), vehicle: saline with Tween-80 99 % of control

CC1(CO)C(O)CCC2(C)C1CCC1CC3CC12CCC3(O)CO (stereo not drawn)
inactive: dose: 6.25 mg/kg/injection, schedule: Q01DX009 (ip), vehicle: saline with Tween-80 87 % of control | [1] 97 % of control | [2] 110 % of control | [3] 106 % of control

CC1CN1CC(O)C(O)CN1CC1C (stereo not drawn)
inactive: [4] 99 % of control | [5] 111 % of control and 116 % of control | [6] 121 % of control and 116 % of control | [7] 123 % of control

CN(C)[C@@H]1C(=O)C(C(N)=O)=C(O)[C@@]2(O)C(=O)C3=C(O)c4c(O)ccc(Cl)c4[C@@](C)(O)[C@H]3C[C@@H]12
inactive: dose: 12.5 mg/kg/injection, schedule: Q01DX009 (ip), vehicle: saline 111 % of control | [8] 101 % of control | [9] 99 % of control | [10] 103 % of control | dose: 200.0 mg/kg/injection, schedule: Q01DX009 (ip), vehicle: saline 107 % of control

C=C(C)/C([O-])=N/[N+](C)(C)CC(O)CCCCCCCCCCCC (stereo not drawn)
inactive: dose: 12.5 mg/kg/injection, schedule: Q01DX001 (ip), vehicle: saline 99 % of control | dose: 50.0 mg/kg/injection, schedule: Q01DX001 (ip), vehicle: saline 86 % of control | dose: 100.0 mg/kg/injection, schedule: Q01DX001 (ip), vehicle: saline 92 % of control | dose: 200.0 mg/kg/injection, schedule: Q01DX001 (ip), vehicle: saline 104 % of control | dose: 400.0 mg/kg/injection, schedule: Q01DX001 (ip), vehicle: saline 87 % of control

CC(=O)OCC12C3CC(=O)OC1C(OC(=O)C=C(C)C)C1C(C)=CC(=O)C(OC(C)=O)C1(C)C2C(=O)C(OC(C)=O)C3C (stereo not drawn)
inactive: [4] 86 % of control | [5] 107 % of control | [6] 91 % of control | [7] 102 % of control | dose: 4.0 mg/kg/injection, schedule: Q01DX009 (ip), vehicle: saline 113 % of control

CCOC(=O)NC(N)=O
inactive: [11] 97 % of control | [12] 100 % of control | [3] 122 % of control | [13] 107 % of control

CC(C)CC(NC(=O)CF)C(=O)O (stereo not drawn)
inactive: dose: 0.31 mg/kg/injection, schedule: Q01DX009 (ip), vehicle: saline 98 % of control | dose: 0.63 mg/kg/injection, schedule: Q01DX009 (ip), vehicle: saline 94 % of control | dose: 1.25 mg/kg/injection, schedule: Q01DX009 (ip), vehicle: saline 90 % of control | dose: 2.5 mg/kg/injection, schedule: Q01DX009 (ip), vehicle: saline 102 % of control | dose: 5.0 mg/kg/injection, schedule: Q01DX009 (ip), vehicle: saline 91 % of control

CC1=C(/C=C/C(C)=C/C=C/C(C)=C/CO)C(C)(C)CCC1
inactive: dose: 4.0 mg/kg/injection, schedule: Q01DX005 (ip), vehicle: saline with Tween-80 95 % of control | dose: 8.0 mg/kg/injection, schedule: Q01DX005 (ip), vehicle: saline with Tween-80 95 % of control | dose: 16.0 mg/kg/injection, schedule: Q01DX005 (ip), vehicle: saline with Tween-80 95 % of control | dose: 32.0 mg/kg/injection, schedule: Q01DX005 (ip), vehicle: saline with Tween-80 102 % of control | dose: 64.0 mg/kg/injection, schedule: Q01DX005 (ip), vehicle: saline with Tween-80 102 % of control | dose: 128.0 mg/kg/injection, schedule: Q01DX005 (ip), vehicle: saline with Tween-80 98 % of control

CC1=CC(=NN=c2cc(C)n([O-])c(C)c2)C=C(C)[N+]1=O
inactive: [1] 102 % of control | [2] 100 % of control | [11] 104 % of control | [12] 105 % of control | [3] 86 % of control

c1ccc2c3c(ccc2c1)Sc1ccc2ccccc2c1N3
inactive: [12] 111 % of control | [13] 102 % of control

CN(C1=NS(=O)(=O)N=C(N(C)c2ccccc2)O1)c1ccccc1
inactive: dose: 12.5 mg/kg/injection, schedule: Q01DX009 (ip), vehicle: Klucel (hydroxypropylcellulose) (HPC) 97 % of control | dose: 25.0 mg/kg/injection, schedule: Q01DX009 (ip), vehicle: Klucel (hydroxypropylcellulose) (HPC) 102 % of control | dose: 50.0 mg/kg/injection, schedule: Q01DX009 (ip), vehicle: Klucel (hydroxypropylcellulose) (HPC) 97 % of control | dose: 100.0 mg/kg/injection, schedule: Q01DX009 (ip), vehicle: Klucel (hydroxypropylcellulose) (HPC) 99 % of control | dose: 200.0 mg/kg/injection, schedule: Q01DX009 (ip), vehicle: Klucel (hydroxypropylcellulose) (HPC) 117 % of control | dose: 400.0 mg/kg/injection, schedule: Q01DX009 (ip), vehicle: Klucel (hydroxypropylcellulose) (HPC) 102 % of control

CCC1(O)CC2CN(CCc3c([nH]c4ccccc34)C(C(=O)OC)(c3cc4c(cc3OC)N(C)C3C(O)(C(N)=O)C(O)C5(CC)C=CCN6CCC43C65)C2)C1 (stereo not drawn) (tested in a mixture with another compound)
inactive: dose: 0.6 mg/kg/injection, schedule: Q04DX003 (ip), vehicle: saline 106 % of control | dose: 1.0 mg/kg/injection, schedule: Q04DX003 (ip), vehicle: saline 111 % of control | dose: 1.67 mg/kg/injection, schedule: Q04DX003 (ip), vehicle: saline 97 % of control | dose: 216.0 micrograms/kg/injection, schedule: Q01DX009 (ip), vehicle: saline 93 % of control | dose: 360.0 micrograms/kg/injection, schedule: Q01DX009 (ip), vehicle: saline 97 % of control

OCCN1CCN(CC/C=C2/c3ccccc3Sc3ccc(C(F)(F)F)cc32)CC1
inactive: dose: 1.56 mg/kg/injection, schedule: Q01DX009 (ip), vehicle: saline with Tween-80 98 % of control | dose: 3.13 mg/kg/injection, schedule: Q01DX009 (ip), vehicle: saline with Tween-80 97 % of control | [1] 97 % of control

CCCCCc1cc(O)c2c(c1)OC(C)(C)[C@@H]1CCC(C)=C[C@@H]21
inactive: dose: 200.0 mg/kg/injection, schedule: Q01DX009 (ip), vehicle: other 89 % of control | dose: 800.0 mg/kg/injection, schedule: Q01DX009 (ip), vehicle: other 88 % of control

CCC/C=C/C=C/C(=O)OC1/C(=C/C(=O)OC)CC2CC(C(C)O)OC(=O)CC(O)CC3CC(OC(C)=O)C(C)(C)C(O)(CC4C/C(=C/C(=O)OC)CC(/C=C/C(C)(C)C1(O)O2)O4)O3 (stereo not drawn)
inactive: dose: 18.75 micrograms/kg/injection, schedule: Q01DX009 (ip), vehicle: saline + alcohol 90 % of control | dose: 37.5 micrograms/kg/injection, schedule: Q01DX009 (ip), vehicle: saline + alcohol 98 % of control | dose: 75.0 micrograms/kg/injection, schedule: Q01DX009 (ip), vehicle: saline + alcohol 107 % of control

CN1CCN(c2ccc3nc(-c4ccc5nc(-c6ccc(O)cc6)[nH]c5c4)[nH]c3c2)CC1
inactive: dose: 6.0 mg/kg/injection, schedule: Q01DX009 (ip), vehicle: saline 95 % of control | dose: 12.0 mg/kg/injection, schedule: Q01DX009 (ip), vehicle: saline 98 % of control | [8] 120 % of control | [9] 102 % of control | [10] 100 % of control
